Literature values, collected in patent publication US10227406B2, “Cannabinoid receptor-1 (CB1) monoclonal antibodies” (AMGEN INC., priority 2013, dated 2019).

Assays:
[1] = cited from earlier work; for food intake, body weight gain and metabolic parameters: mice; for brain penetration: mouse, in vivo
[2] = multiple clinical trials; cited from earlier work
[3] = in vivo; cited from earlier work

Compound	food intake, body weight gain and metabolic parameters [1]	brain penetration [1]	adverse CNS effects [2]	body weight and metabolic parameters [3]
Cc1c(C(=O)NN2CCS(=O)(=O)CC2)nn(-c2ccc(Cl)cc2Cl)c1-c1ccc(C#CCCC#N)cc1 [AM6545]	reduce food intake and body weight gain and improve multiple metabolic parameters	poor brain penetration	–	–
Cc1c(C(=O)NN2CCCCC2)nn(-c2ccc(Cl)cc2Cl)c1-c1ccc(Cl)cc1 [rimonabant]	–	–	increased the incidence of anxiety, depression, and suicidal ideation	reduce body weight and improve metabolic parameters
CC(C)[C@H](N=C(NS(=O)(=O)c1ccc(Cl)cc1)N1C[C@H](c2ccccc2)C(c2ccc(Cl)cc2)=N1)C(N)=O [JD5037]	reduce food intake and body weight gain and improve multiple metabolic parameters	poor brain penetration	–	–
C[C@H](NC(=O)C(C)(C)Oc1ccc(C(F)(F)F)cn1)[C@@H](Cc1ccc(Cl)cc1)c1cccc(C#N)c1 [taranabant]	–	–	–	reduce body weight and improve metabolic parameters
